According to patent publication US7196103B2, “Indole derivatives as factor Xa inhibitors” (Sanofi-Aventis Deutschland GmbH, priority 2003, dated 2007):

Biological target: T1, human factor Xa (Homo sapiens, UniProt P00742)
T1 construct: human factor Xa; purchased Enzyme Research Laboratories, Inc; South Bend, Ind
Assay: Factor Xa assay (chromogenic, inhibition of factor Xa activity)
Type: biochemical
Details: purified human factor Xa 0.5 nM, chromogenic substrate S-2765 140 μM, 25° C., pH 7.8; Ki calculated from IC50 corrected for substrate competition; read-out: Ki (inhibition constant) for the inhibition of factor Xa
Procedure: Purified enzymes were used in chromogenic assays.
The assay was performed by pre-incubating the compound of formula I plus enzyme for 10 min. Then the assay was initiated by adding substrate to obtain a final volume of 100 μl. The initial velocity of chromogenic substrate hydrolysis was measured by the change in absorbance at 405 nm using a Bio-tek Instruments kinetic plate reader (Ceres UV900HDi) at 25° C. during the linear portion of the time course (usually 1.5 min after addition of substrate).

T1 sequence (P00742 235-488 limits assumed): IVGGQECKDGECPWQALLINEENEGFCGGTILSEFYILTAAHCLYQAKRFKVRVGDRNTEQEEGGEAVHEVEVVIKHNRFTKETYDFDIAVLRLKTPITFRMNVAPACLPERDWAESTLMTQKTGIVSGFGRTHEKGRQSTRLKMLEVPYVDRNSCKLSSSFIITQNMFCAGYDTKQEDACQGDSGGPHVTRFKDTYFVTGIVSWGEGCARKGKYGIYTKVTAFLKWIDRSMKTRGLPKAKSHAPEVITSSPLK
T1 sequence (P00742 41-179 partner limits assumed): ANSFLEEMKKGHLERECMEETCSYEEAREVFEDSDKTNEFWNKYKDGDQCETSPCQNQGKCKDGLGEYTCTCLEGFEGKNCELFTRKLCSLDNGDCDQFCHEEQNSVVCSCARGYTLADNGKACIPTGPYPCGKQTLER

Row | Structure (SMILES) | Ki [nM]
1 | Cc1oc(=O)oc1COC(=O)c1ccc2c(c1)cc(C(=O)NC1CCN(C(C)C)CC1)n2Cc1cc(-c2ccc(Cl)s2)on1 [Example 15, 1-[5-(5-Chloro-thiophen-2-yl)-isoxazol-3-ylmethyl]-2-(1-isopropyl-piperidin-4-ylcarbamoyl)-1H-indole-5-carboxylic acid 5-methyl-2-oxo-[1,3]dioxol-4-ylmethyl ester] | 11
2 | COCCOC(=O)OC(C)OC(=O)c1ccc2c(c1)cc(C(=O)NC1CCN(C(C)C)CC1)n2CC(=O)Nc1ccc(Cl)cn1 (stereo not drawn) [Example 5, 1-[(5-Chloro-pyridin-2-ylcarbamoyl)-methyl]-2-(1-isopropyl-piperidin-4-ylcarbamoyl)-1H-indole-5-carboxylic acid 1-(2-methoxy-ethoxycarbonyloxy)-ethyl ester] | 9
3 | CC(C)N1CCC(NC(=O)c2cc3cc(C(=O)N4CCCOCC4)ccc3n2CC(=O)Nc2ccc(Cl)nc2)CC1 [Example 6, 1-[(6-Chloro-pyridin-3-ylcarbamoyl)-methyl]-5-([1,4]oxazepane-4-carbonyl)-1H-indole-2-carboxylic acid (1-isopropyl-piperidin-4-yl)-amide] | 375
4 | CC(C)N1CCC(NC(=O)c2cc3cc(C(=O)OCC4COC(=O)O4)ccc3n2Cc2cc(-c3ccc(Cl)s3)on2)CC1 (stereo not drawn) [Example 3, 1-[5-(5-Chloro-thiophen-2-yl)-isoxazol-3-ylmethyl]-2-(1-isopropyl-piperidin-4-ylcarbamoyl)-1H-indole-5-carboxylic acid 2-oxo-[1,3]dioxolan-4-ylmethyl ester] | 14
5 | CC(C)N1CCC(NC(=O)c2cc3cc(C(=O)N4CCCOCC4)ccc3n2CC(=O)Nc2ccc(Cl)cn2)CC1 [Example 4, 1-[(5-Chloro-pyridin-2-ylcarbamoyl)-methyl]-5-([1,4]oxazepane-4-carbonyl)-1H-indole-2-carboxylic acid (1-isopropyl-piperidin-4-yl)-amide] | 22
6 | CC(C)N1CCC(NC(=O)c2cc3cc(C(=O)N4CCCC4CO)ccc3n2Cc2cc(-c3ccc(Cl)s3)on2)CC1 (stereo not drawn) [Example 2, 1-[5-(5-Chloro-thiophen-2-yl)-isoxazol-3-ylmethyl]-5-(2-hydroxymethyl-pyrrolidine-1-carbonyl)-1H-indole-2-carboxylic acid (1-isopropyl-piperidin-4-yl)-amide] | 113

Second part, the compound after the results:

Row | Ki [nM] | Structure (SMILES)
7 | 1 | Cc1oc(=O)oc1COC(=O)c1cccc2c1cc(C(=O)NC1CCN(C(C)C)CC1)n2Cc1cc(-c2ccc(Cl)s2)on1 [Example 14, 1-[5-(5-Chloro-thiophen-2-yl)-isoxazol-3-ylmethyl]-2-(1-isopropyl-piperidin-4-ylcarbamoyl)-1H-indole-4-carboxylic acid 5-methyl-2-oxo-[1,3]dioxol-4-ylmethyl ester]
8 | 2 | COCCOC(=O)OC(C)OC(=O)c1cccc2c1cc(C(=O)NC1CCN(C(C)C)CC1)n2CC(=O)Nc1ccc(Cl)cn1 (stereo not drawn) [Example 13, 1-[(5-Chloro-pyridin-2-ylcarbamoyl)-methyl]-2-(1-isopropyl-piperidin-4-ylcarbamoyl)-1H-indole-4-carboxylic acid 1-(2-methoxy-ethoxycarbonyloxy)-ethyl ester]
9 | 24 | CC(C)ONC(=O)c1ccc2c(c1)cc(C(=O)NC1CCN(C(C)C)CC1)n2Cc1cc(-c2ccc(Cl)s2)on1 [Example 10, 1-[5-(5-Chloro-thiophen-2-yl)-isoxazol-3-ylmethyl]-1H-indole-2,5-dicarboxylic acid 5-(isopropoxy-amide) 2-[(1-isopropyl-piperidin-4-yl)-amide]]
10 | 14 | CC(C)N1CCC(NC(=O)c2cc3c(C(=O)N4CC(O)C4)cccc3n2Cc2cc(-c3ccc(Cl)s3)on2)CC1 [Example 12, 1-[5-(5-Chloro-thiophen-2-yl)-isoxazol-3-ylmethyl]-4-(3-hydroxy-azetidine-1-carbonyl)-1H-indole-2-carboxylic acid (1-isopropyl-piperidin-4-yl)-amide]
11 | 3 | CC(C)N1CCC(NC(=O)c2cc3c(C(=O)N4CCCOCC4)cccc3n2CC(=O)Nc2ccc(Cl)cn2)CC1 [Example 7, 1-[(5-Chloro-pyridin-2-ylcarbamoyl)-methyl]-4-([1,4]oxazepane-4-carbonyl)-1H-indole-2-carboxylic acid (1-isopropyl-piperidin-4-yl)-amide]
12 | 57 | CC(C)N1CCC(NC(=O)c2cc3cc(C(=O)N4CC(O)C4)ccc3n2Cc2cc(-c3ccc(Cl)s3)on2)CC1 [Example 1, 1-[5-(5-Chloro-thiophen-2-yl)-isoxazol-3-ylmethyl]-5-(3-hydroxy-azetidine-1-carbonyl)-1H-indole-2-carboxylic acid (1-isopropyl-piperidin-4-yl)-amide]
13 | 133 | COc1cccc(Cn2c(C(=O)NC3CCN(C(C)C)CC3)cc3c(C(=O)N4CC(OC)C4)cccc32)c1 [Example 8, 4-(3-Methoxy-azetidine-1-carbonyl)-1-(3-methoxy-benzyl)-1H-indole-2-carboxylic acid (1-isopropyl-piperidin-4-yl)-amide]
14 | 124 | COc1cccc(Cn2c(C(=O)NC3CCN(C(C)C)CC3)cc3c(C(=O)N4CC(O)C4)cccc32)c1 [Example 9, 4-(3-Hydroxy-azetidine-1-carbonyl)-1-(3-methoxy-benzyl)-1H-indole-2-carboxylic acid (1-isopropyl-piperidin-4-yl)-amide]
15 | 8 | CC(C)N1CCC(NC(=O)c2cc3cc(C(=O)N4CC(O)C4)ccc3n2CC(=O)Nc2ccc(Cl)cn2)CC1 [Example 11, 1-[(5-Chloro-pyridin-2-ylcarbamoyl)-methyl]-5-(3-hydroxy-azetidine-1-carbonyl)-1H-indole-2-carboxylic acid (1-isopropyl-piperidin-4-yl)-amide]
